The supplement of paper PMC6315032

What was measured:
Experiment in all cases: apparent dissociation constant (pKDapp, Kinobeads competition, Cheng-Prusoff corrected) (-log10 M); higher = tighter binding
Conditions in all cases: affinity matrix / lysate: Kinobeads, mixed HEK293/K-562/placenta lysate
[1] = target: KDR (UniProt P35968)
[2] = target: LATS1 (UniProt O95835)
[3] = target: CSNK1A1 (UniProt P48729)
[4] = target: CDC2L5 (UniProt Q14004)
[5] = target: LYN (UniProt P07948)
[6] = target: IGF1R (UniProt P08069)
[7] = target: AKT2 (UniProt P31751)
[8] = target: MST1R (UniProt Q04912)
[9] = target: CDK5 (UniProt Q00535)
[10] = target: MELK (UniProt Q14680)
[11] = target: CSNK1D (UniProt P48730)
[12] = target: AXL (UniProt P30530)
[13] = target: STK35 (UniProt Q8TDR2)
[14] = target: EIF2AK4 (UniProt Q9P2K8)
[15] = target: BUB1 (UniProt O43683)
[16] = target: MAPK1 (UniProt P28482)
[17] = target: MAP2K5 (UniProt Q13163)
[18] = target: EPHA5 (UniProt P54756)
[19] = target: EPHA2 (UniProt P29317)
[20] = target: FES (UniProt P07332)
[21] = target: RPS6KA3 (UniProt P51812)
[22] = target: PTK2B (UniProt Q14289)
[23] = target: TYRO3 (UniProt Q06418)
[24] = target: SRC (UniProt P12931)
[25] = target: BTK (UniProt Q06187)
[26] = target: EPHA7 (UniProt Q15375)
[27] = target: MERTK (UniProt Q12866)
[28] = target: SGK3 (UniProt Q96BR1)
[29] = target: ADCK1 (UniProt Q86TW2)
[30] = target: PCTK1 (UniProt Q00536)
[31] = target: MAP4K4 (UniProt O95819)
[32] = target: SIK2 (UniProt Q9H0K1)
[33] = target: PRKD2 (UniProt Q9BZL6)
[34] = target: CDC42BPA (UniProt Q5VT25)

Measured: apparent dissociation constant (-log10 M)

Sequence of PRKD2 (Q9BZL6 whole entry): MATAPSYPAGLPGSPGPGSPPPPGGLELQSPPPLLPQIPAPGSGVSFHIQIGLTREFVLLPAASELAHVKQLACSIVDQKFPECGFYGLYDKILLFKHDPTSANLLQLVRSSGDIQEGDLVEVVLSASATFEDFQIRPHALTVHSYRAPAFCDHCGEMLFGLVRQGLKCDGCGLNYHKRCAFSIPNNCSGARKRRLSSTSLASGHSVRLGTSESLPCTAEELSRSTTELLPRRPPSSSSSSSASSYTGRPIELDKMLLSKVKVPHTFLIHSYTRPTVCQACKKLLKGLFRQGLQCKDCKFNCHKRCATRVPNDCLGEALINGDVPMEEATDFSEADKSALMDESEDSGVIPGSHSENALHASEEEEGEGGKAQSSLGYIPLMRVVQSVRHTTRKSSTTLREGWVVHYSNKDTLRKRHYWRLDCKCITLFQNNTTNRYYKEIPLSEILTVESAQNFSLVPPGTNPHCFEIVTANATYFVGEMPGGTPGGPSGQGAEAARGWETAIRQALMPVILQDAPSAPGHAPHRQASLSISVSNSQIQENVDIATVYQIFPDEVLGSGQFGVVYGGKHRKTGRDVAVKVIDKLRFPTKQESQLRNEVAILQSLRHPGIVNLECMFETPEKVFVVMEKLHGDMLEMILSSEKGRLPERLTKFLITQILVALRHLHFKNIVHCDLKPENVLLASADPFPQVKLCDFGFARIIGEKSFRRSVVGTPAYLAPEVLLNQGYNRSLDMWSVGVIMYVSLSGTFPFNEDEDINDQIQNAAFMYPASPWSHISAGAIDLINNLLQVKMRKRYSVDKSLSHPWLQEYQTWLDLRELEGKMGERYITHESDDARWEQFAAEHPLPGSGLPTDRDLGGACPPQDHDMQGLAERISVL
Sequence of PCTK1 (Q00536 whole entry): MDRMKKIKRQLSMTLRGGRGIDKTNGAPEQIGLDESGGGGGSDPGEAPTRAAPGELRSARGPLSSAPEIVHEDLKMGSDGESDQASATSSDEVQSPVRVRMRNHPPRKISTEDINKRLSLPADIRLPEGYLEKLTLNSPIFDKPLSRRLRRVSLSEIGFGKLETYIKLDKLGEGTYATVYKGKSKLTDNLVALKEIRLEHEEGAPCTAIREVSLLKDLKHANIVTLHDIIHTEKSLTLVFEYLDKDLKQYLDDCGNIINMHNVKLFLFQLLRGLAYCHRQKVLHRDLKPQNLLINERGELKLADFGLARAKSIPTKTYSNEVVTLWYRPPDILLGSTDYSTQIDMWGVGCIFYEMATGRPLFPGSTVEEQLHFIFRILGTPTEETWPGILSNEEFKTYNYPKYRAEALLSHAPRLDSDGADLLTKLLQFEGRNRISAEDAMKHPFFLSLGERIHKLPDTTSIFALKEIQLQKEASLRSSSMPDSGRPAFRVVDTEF
Sequence of CSNK1A1 (P48729 whole entry, looked up): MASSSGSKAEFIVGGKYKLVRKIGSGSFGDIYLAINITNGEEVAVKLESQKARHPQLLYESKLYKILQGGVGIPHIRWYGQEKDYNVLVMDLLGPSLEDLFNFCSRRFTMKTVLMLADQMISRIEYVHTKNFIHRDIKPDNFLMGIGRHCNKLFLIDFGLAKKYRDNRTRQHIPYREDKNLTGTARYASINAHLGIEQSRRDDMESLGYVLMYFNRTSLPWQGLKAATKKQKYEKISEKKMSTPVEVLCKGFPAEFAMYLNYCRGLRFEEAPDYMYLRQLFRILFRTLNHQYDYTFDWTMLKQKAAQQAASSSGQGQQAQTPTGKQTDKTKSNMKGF
Sequence of EPHA7 (Q15375 whole entry, looked up): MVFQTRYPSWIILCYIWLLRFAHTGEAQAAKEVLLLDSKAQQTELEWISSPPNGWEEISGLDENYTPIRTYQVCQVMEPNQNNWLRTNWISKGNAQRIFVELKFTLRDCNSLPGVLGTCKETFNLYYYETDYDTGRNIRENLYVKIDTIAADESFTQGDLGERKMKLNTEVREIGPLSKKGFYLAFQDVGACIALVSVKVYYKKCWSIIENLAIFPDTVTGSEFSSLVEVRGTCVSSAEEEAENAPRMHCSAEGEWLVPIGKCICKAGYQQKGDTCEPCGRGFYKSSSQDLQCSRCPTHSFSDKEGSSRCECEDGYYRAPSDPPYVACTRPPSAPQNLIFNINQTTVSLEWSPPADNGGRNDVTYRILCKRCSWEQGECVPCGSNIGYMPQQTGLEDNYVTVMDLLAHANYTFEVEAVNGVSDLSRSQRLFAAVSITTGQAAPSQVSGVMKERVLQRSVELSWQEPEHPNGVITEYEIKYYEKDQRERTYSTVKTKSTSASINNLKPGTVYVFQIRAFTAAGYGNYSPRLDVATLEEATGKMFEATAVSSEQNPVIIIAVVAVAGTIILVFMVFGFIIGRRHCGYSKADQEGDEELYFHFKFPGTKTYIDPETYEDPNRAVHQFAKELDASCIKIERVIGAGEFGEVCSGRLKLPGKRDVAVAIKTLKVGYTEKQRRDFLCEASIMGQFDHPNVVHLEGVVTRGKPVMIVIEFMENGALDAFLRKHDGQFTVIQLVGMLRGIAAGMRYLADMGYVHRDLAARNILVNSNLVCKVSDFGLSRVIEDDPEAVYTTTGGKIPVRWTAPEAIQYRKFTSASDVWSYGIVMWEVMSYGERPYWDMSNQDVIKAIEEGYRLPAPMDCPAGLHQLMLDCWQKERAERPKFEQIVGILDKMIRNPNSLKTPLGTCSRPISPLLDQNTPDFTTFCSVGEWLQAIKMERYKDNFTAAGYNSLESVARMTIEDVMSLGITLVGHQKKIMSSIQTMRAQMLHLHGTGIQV
Sequence of MST1R (Q04912 whole entry): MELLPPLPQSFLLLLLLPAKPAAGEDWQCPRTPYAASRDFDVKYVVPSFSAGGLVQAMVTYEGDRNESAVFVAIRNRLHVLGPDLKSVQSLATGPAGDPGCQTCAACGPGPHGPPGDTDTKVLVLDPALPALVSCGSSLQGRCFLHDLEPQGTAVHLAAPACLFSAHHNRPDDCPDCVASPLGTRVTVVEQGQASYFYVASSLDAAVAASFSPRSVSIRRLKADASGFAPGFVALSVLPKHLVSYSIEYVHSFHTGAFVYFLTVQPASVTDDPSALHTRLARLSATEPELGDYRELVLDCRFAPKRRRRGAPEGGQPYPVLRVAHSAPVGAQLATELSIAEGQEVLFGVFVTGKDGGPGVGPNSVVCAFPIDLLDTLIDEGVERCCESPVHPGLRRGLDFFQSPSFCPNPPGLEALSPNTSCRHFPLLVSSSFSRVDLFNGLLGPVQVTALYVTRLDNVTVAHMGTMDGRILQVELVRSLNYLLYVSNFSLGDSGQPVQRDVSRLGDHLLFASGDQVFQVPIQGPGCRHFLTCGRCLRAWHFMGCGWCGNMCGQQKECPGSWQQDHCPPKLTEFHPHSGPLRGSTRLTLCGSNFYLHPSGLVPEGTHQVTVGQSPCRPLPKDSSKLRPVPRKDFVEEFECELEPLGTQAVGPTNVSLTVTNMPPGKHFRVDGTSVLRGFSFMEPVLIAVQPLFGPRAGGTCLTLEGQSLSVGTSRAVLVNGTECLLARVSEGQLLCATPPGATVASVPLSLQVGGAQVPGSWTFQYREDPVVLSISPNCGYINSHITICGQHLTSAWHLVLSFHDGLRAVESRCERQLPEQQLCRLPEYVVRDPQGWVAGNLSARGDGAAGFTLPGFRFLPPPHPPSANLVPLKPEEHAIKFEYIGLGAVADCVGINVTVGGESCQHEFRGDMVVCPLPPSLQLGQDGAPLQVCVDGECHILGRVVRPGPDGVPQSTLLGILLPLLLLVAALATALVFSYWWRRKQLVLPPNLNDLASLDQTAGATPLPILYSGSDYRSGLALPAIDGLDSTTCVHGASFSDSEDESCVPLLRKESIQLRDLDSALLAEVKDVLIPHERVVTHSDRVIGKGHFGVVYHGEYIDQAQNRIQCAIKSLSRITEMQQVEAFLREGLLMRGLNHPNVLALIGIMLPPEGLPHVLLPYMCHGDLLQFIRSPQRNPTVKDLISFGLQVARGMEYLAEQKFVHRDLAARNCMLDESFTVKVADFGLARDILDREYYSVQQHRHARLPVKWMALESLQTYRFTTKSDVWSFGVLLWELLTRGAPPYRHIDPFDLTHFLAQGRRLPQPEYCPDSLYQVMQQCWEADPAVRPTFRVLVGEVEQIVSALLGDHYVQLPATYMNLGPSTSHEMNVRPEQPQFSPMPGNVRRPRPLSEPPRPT
Sequence of AXL (P30530 whole entry): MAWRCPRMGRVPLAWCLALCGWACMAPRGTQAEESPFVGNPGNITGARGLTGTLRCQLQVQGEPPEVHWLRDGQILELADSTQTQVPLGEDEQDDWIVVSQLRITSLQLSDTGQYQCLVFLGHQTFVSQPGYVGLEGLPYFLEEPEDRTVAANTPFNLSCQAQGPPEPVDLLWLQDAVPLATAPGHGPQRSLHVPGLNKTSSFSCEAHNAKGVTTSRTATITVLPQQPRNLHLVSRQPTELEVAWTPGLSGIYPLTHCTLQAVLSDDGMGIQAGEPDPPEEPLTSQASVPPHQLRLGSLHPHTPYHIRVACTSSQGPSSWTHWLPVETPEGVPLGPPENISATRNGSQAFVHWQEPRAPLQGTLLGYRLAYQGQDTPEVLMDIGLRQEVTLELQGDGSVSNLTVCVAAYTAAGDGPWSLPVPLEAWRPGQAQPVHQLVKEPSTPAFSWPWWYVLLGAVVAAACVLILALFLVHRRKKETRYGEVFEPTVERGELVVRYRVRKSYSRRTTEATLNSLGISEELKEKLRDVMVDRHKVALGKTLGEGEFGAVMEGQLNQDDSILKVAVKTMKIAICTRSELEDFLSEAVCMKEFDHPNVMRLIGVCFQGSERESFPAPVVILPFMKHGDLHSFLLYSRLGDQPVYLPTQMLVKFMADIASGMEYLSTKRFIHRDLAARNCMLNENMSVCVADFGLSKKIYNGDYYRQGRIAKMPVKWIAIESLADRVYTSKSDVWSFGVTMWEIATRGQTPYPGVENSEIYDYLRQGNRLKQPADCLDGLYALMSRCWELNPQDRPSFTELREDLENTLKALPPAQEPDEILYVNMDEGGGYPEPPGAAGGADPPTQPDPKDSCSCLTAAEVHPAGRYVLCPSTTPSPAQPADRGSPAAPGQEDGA

COc1ccc(-c2ccc3c(N4CCOC[C@@H]4C)nc(N4CCOC[C@@H]4C)nc3n2)cc1CO [AZD8055]
< 6: all assays above

CCNC(=O)Nc1ccc(-c2nc(N3CCOC[C@@H]3C)c3c(n2)C(C)(C)S(=O)(=O)C3)cc1 [CZ415]
< 6: all assays above
